In brackets after ≈: the same amount, converted by molar mass. Activity calls are given as the source filed them. The rule behind the calls is not given here.
Assays:
Assay type in all cases: functional
[1] = test system: Rattus norvegicus; experiment: Antiinflammatory activity in Wistar albino rat assessed as inhibition of carrageenan-induced paw edema at 40 mg/kg, po administered 1 hr prior to carrageenan challenge measured 1 hr post carrageenan challenge relative to control
[2] = test system: Candida albicans; experiment: Antifungal activity against Candida albicans ATCC 10231 after 2 days by microdilution broth method; conditions: ATCC 10231, 48 h
[3] = test system: Escherichia coli; experiment: Antibacterial activity against Escherichia coli ATCC 25922 after 2 days by microdilution broth method; conditions: ATCC 25922, 48 h
[4] = test system: Rattus norvegicus; experiment: Antiinflammatory activity in Wistar albino rat assessed as inhibition of carrageenan-induced paw edema at 40 mg/kg, po administered 1 hr prior to carrageenan challenge measured 4 hrs post carrageenan challenge relative to control
[5] = test system: Aspergillus niger; experiment: Antifungal activity against Aspergillus niger ATCC 9029 after 2 days by microdilution broth method; conditions: ATCC 9029, 48 h
[6] = test system: Rattus norvegicus; experiment: Antiinflammatory activity in Wistar albino rat assessed as inhibition of carrageenan-induced paw edema at 40 mg/kg, po administered 1 hr prior to carrageenan challenge measured 2 hrs post carrageenan challenge relative to control
[7] = test system: Staphylococcus aureus; experiment: Antibacterial activity against Staphylococcus aureus ATCC 25923 after 2 days by microdilution broth method; conditions: ATCC 25923, 48 h

Structure (SMILES) | inhibition in vivo at 40 mg/kg [1] [%] | MIC [2] [µM] | MIC [3] [µM] | inhibition in vivo at 40 mg/kg [4] [%] | MIC [5] [µM] | inhibition in vivo at 40 mg/kg [6] [%] | MIC [7] [µM] | inhibition [1] | inhibition [4] | inhibition [6]
COc1ccc(N2C(=O)CSC2c2sc(Cc3ccc(Cl)cc3)nc2C)cc1 (stereo not drawn) | 20.9 | 14.5 (≈ 6.25 µg/mL) | 58 (≈ 25 µg/mL) | 55.9 | 14.5 (≈ 6.25 µg/mL) | 28.6 | 58 (≈ 25 µg/mL) | – | – | –
COc1ccc2c(c1)c(CC(=O)O)c(C)n2C(=O)c1ccc(Cl)cc1 [INDOMETHACIN] | 70.2 | – | – | 87.3 | – | 78.3 | – | – | – | –
Cc1nc(-c2ccccc2)sc1C1SCC(=O)N1c1ccc(F)c(Cl)c1 (stereo not drawn) | 55.9 | 123 (≈ 50 µg/mL) | 61.7 (≈ 25 µg/mL) | 28.6 | 123 (≈ 50 µg/mL) | 20.9 | 61.7 (≈ 25 µg/mL) | – | – | –
Cc1nc(Cc2ccc(Cl)cc2)sc1C1SCC(=O)N1c1ccc(F)cc1 (stereo not drawn) | – | 14.9 (≈ 6.25 µg/mL) | 59.7 (≈ 25 µg/mL) | – | 14.9 (≈ 6.25 µg/mL) | – | 59.7 (≈ 25 µg/mL) | – | – | –
Cc1nc(-c2ccc(Cl)cc2)sc1C1SCC(=O)N1c1ccc(F)c(Cl)c1 (stereo not drawn) | 53.4 | 114 (≈ 50 µg/mL) | 56.9 (≈ 25 µg/mL) | 65.1 | 114 (≈ 50 µg/mL) | 45.1 | 56.9 (≈ 25 µg/mL) | – | – | –
O=C(O)c1cn(C2CC2)c2cc(N3CCNCC3)c(F)cc2c1=O [CIPROFLOXACIN] | – | – | 2.35 (≈ 0.779 µg/mL) | – | – | – | 4.7 (≈ 1.56 µg/mL) | – | – | –
Cc1nc(-c2ccccc2)sc1C1SCC(=O)N1c1ccccc1 (stereo not drawn) | 44.4 | 142 (≈ 50 µg/mL) | 70.9 (≈ 25 µg/mL) | 63.7 | 142 (≈ 50 µg/mL) | 50.6 | 70.9 (≈ 25 µg/mL) | – | – | –
Cc1ccc(N2C(=O)CSC2c2sc(Cc3ccc(Cl)cc3)nc2C)cc1 (stereo not drawn) | 59.9 | 30.1 (≈ 12.5 µg/mL) | 60.2 (≈ 25 µg/mL) | 81.3 | 15.1 (≈ 6.25 µg/mL) | 61.4 | 60.2 (≈ 25 µg/mL) | – | – | –
Cc1nc(Cc2ccc(Cl)cc2)sc1C1SCC(=O)N1c1ccccc1 (stereo not drawn) | – | 33.9 (≈ 13.6 µg/mL) | 67.8 (≈ 27.2 µg/mL) | – | 33.9 (≈ 13.6 µg/mL) | – | 67.8 (≈ 27.2 µg/mL) | inactive | inactive | inactive
Cc1nc(-c2ccccc2)sc1C1SCC(=O)N1c1ccc(Cl)cc1 (stereo not drawn) | 54.8 | 129 (≈ 50 µg/mL) | 64.6 (≈ 25 µg/mL) | 80.8 | 129 (≈ 50 µg/mL) | 59.1 | 129 (≈ 50 µg/mL) | – | – | –

Source: ChEMBL document CHEMBL2146439, “Synthesis and pharmacological evaluation of a novel series of 3-aryl-2-(2-substituted-4-methylthiazole-5-yl)thiazolidin-4-one as possible anti-inflammatory and antimicrobial agents” (2012)
